Data from US8426684B2 (Washington State University Research Foundation, priority 2004, dated 2013).
Several values for one entry are separate records, joined by “and”; a condition that tells them apart may be missing. Equal entries are not always repeated.

How the values were obtained:
[1] = target: T1, menthone: (3R)-(−)-menthol reductase (SEQ ID NO:2) (Mentha x piperita, UniProt Q5CAF4); experiment: Substrate specificity of the reductase; format: biochemical; conditions: 100 μM monoterpenone substrate, 500 μM NADPH, 0.5 μg reductase, pH optimum, overnight incubation
[2] = target: T1, menthone: (3R)-(−)-menthol reductase (SEQ ID NO:2); conditions: at saturation under linear reaction conditions
Experimental: Assay mixtures containing 2 ml of 40 mM KH2PO4 at pH 7, with 10 mM β-mercaptoethanol were combined with 500 μM cofactor and concentrations of monoterpene substrate ranging from 2.5 μM to 1 mM, or with 100 μM monoterpene substrate, and concentrations of cofactor ranging from 0.1 μM to 1 mM, and preheated to 31° C. before initiation of the reaction by enzyme addition (0.008 to 1.3 μg protein). The reactions were quenched after 6 to 9 min by addition of 0.5 ml pentane containing camphor as internal standard (6.6 μM) followed by vigorous mixing and cooling on ice; quantitation of products in the pentane extract was achieved by capillary-GC using the conditions described above with peak area quantification using the internal standard for normalization. […] Kinetic constants, representing the average of at least two independent experiments, were determined by nonlinear regression analysis of Michaelis-Menten plots using Enzyme Kinetics, v 1.11 (Trinity Software, Plymouth, N.H.). The values reported are the means±standard error.

[3] = target: T1, menthone: (3R)-(−)-menthol reductase (SEQ ID NO:2); experiment: In vitro demonstration of menthone reductase activity (product analysis by GC, GC-MS); format: biochemical; conditions: partially purified recombinant protein
Experimental: Bacteria harboring the pSBET-reductase plasmid or the pET-reductase plasmid were grown in 5 ml cultures of Luria-Bertani (LB) media to an OD600 of 0.8-1.0, at which time the cultures were cooled to 10° C., isopropyl-β-D-thiogalactopyranoside was added to 0.25 mM, and growth was continued for 12-18 h at 10° C. with shaking at 220 rpm. Cells were pelleted by centrifugation for 25 min at 2500 g and 4° C., and then resuspended in 1 ml resuspension buffer (50 mM Mopso, pH 7, with 10% (v/v) glycerol, 10% (w/v) sorbitol, and 10 mM […]) containing 0.4 mg/ml lysozyme. Following incubation on ice for 30 min, the extract was sonicated for 10 sec with a Virtis sonicator using a microtip probe at medium power. Cell debris was pelleted by centrifugation at 27,000 g at 4° C. for 30 min, and the supernatant, containing the operationally soluble reductase, was used for initial characterization.
Following incubation with gentle shaking at 31° C. for 12 h, 0.5 ml of pentane was added and the mixture was vigorously mixed to extract the monoterpene products which were analyzed by GC and GC-MS as described above. […] Following 15 h of shaking (250 rpm) at 15-20° C., these cultures were transferred to 0.5 L round-bottom flasks, to which 6.6 μmol of (+)-camphor was added as an internal standard, and the mixture was steam distilled and the distillate analyzed as described above.

[4] = substrate: CC(C)[C@@H]1CC[C@@H](C)CC1=O; experiment: purified protein, by the assay type; conditions: other: monoterpene substrate, NADPH as cofactor, reductase expressed from pSBET, pH 7, 31° C., means±standard error
[5] = substrate: CC(C)[C@H]1CC[C@@H](C)CC1=O; experiment: purified protein, by the assay type; conditions: other: monoterpene substrate, NADPH as cofactor, reductase expressed from pSBET, pH 7, 31° C., means±standard error
[6] = target: T1, menthone: (3R)-(−)-menthol reductase (SEQ ID NO:2); experiment: pH optimum of the reductase; format: biochemical; conditions: 25 μM menthone, 500 μM NADPH, 0.5 μg protein, 6 min at 31° C.
[7] = from (+)-isomenthone in the presence of NADPH
[8] = from (−)-menthone in the presence of NADPH

C=C(C)[C@H]1CC[C@@H](C)CC1=O (relative stereo) [(+)-cis-isopulegone]
reduction of alternate substrate to the corresponding monoterpenols [1]: only able to detectably reduce (+)-menthone

C=C(C)C1CC=C(C)C(=O)C1 (single isomer, unassigned; (-)) [(−)-carvone]
reduction of alternate substrate to the corresponding monoterpenols [1]: only able to detectably reduce (+)-menthone

C=C(C)C1CCC(C)=CC1=O (single isomer, unassigned; (-)) [(−)-isopiperitenone]
reduction of alternate substrate to the corresponding monoterpenols [1]: only able to detectably reduce (+)-menthone

CC(C)=C1CC[C@@H](C)CC1=O [(+)-pulegone]
reduction of alternate substrate to the corresponding monoterpenols [1]: only able to detectably reduce (+)-menthone

NC(=O)C1=CN([C@@H]2O[C@H](COP(=O)(O)OP(=O)(O)OC[C@H]3O[C@@H](n4cnc5c(N)ncnc54)[C@H](O)[C@@H]3O)[C@@H](O)[C@H]2O)C=CC1 [NADH]
turnover with NADH as cofactor compared with NADPH [2]: less than 20%

CC(C)[C@H]1CC[C@@H](C)CC1=O [isomenthone, (+)-isomenthone]
product share (3R)-(+)-neoisomenthol [3, 7]: 87% | product share (3S)-(+)-isomenthol [3, 7]: 13%

CC(C)[C@@H]1CC[C@@H](C)CC1=O [menthone, (−)-menthone]
product share (3R)-(−)-menthol [3, 8]: 95% | product share (3S)-(+)-neomenthol [3, 8]: 5%

(+)-menthone
reduction of alternate substrate to the corresponding monoterpenols [1]: detectably reduce

B1: menthone: (3R)-(−)-menthol reductase (SEQ ID NO:2) (Mentha x piperita) (protein)
chain: MADTFTQRYALVTGANKGIGFEICRQLASKGMKVILASRNEKRGIEARERLLKESRSISDDDVVFHQLDVADPASAVAVAHFIETKFGRLDILVNNAGFTGVAIEGDISVYQECLEANIIAAQGGQAHPFHPKTTGRLIETLEGSKECIETNYYGTKRITETLIPLLQKSDSPTIVNVSSTFSTLLLQPNEWAKGVFSSNSLNEGKVEEVLHEFLKDFIDGKLQQNHWPPNFAAYKVSKAAVNAYTRIIARKYPSFCINSVCPGFVRTDICYNLGVLSEAEGAEAPVKLALLPDGGPSGSFFSREEALSLY
Km [4]: 3.0 ± 0.6 µM | kcat [4]: 0.6 s⁻¹ | Km [5]: 41 ± 5 µM

B2: reductase (SEQ ID NO:2): recombinant peppermint menthone: (3R)-(−)-menthol reductase, 311 residue protein encoded by cDNA SEQ ID NO:1, expressed in E. coli (protein)
chain: MADTFTQRYALVTGANKGIGFEICRQLASKGMKVILASRNEKRGIEARERLLKESRSISDDDVVFHQLDVADPASAVAVAHFIETKFGRLDILVNNAGFTGVAIEGDISVYQECLEANIIAAQGGQAHPFHPKTTGRLIETLEGSKECIETNYYGTKRITETLIPLLQKSDSPTIVNVSSTFSTLLLQPNEWAKGVFSSNSLNEGKVEEVLHEFLKDFIDGKLQQNHWPPNFAAYKVSKAAVNAYTRIIARKYPSFCINSVCPGFVRTDICYNLGVLSEAEGAEAPVKLALLPDGGPSGSFFSREEALSLY
modifications: Mentha Piperita
pH of half maximal activities [6]: 4.5 and 8.5 | pH optimum [6]: 7.0
